Tests used:
[1] = test system: E. coli; test: Supplements to rich/selective media in RepFIC transformations; format: cell-based; settings: for effective as substitute for the L-cysteine effect in RepFIC transformations: supplement to rich media, glutathione 300 micrograms per ml; for increase in the number of transformants: supplement added to the selective medium
[2] = test system: C600; test: Transformation of scL and scH RepFIC plasmid DNAs into C600; format: cell-based, E. coli; settings: supplement added after electroporation and/or during selection
Description: The package consists of homocysteine, ferrous sulfate, and magnesium sulfate.
To ascertain that the scL phenotype was heritable under all circumstances and viable, scL DNA was transferred into C600 by electroporation. Selection of transformants was carried out without additional supplements or in the presence of cysteine or glutathione. […] Thus, although an additional source of cysteine is still required under the conditions of this transformation, cysteine becomes toxic at the concentration that was previously used.
In order to identify the contribution of co-transmitted molecules that are easily removed, scL DNA was in vitro salt-stripped before being transformed. […] Plasmid preparations are associated with several proteins, of about 32 kda in size, which could be the dam-methyltransferase (GenBank accession no. J01600). Therefore, it is possible that the dam-methyltransferase is one significant component removed by the salt treatment.
The methylation reaction per se could have become limiting as a result of the removal of methyltransferase, and activation of the biosynthesis of S-adenosylmethionine (SAM), the methyl donor in the methylation reaction, could help overcome low enzyme levels in the cell. Homocysteine is a known co-inducer of the MetR regulon (Schell, 1993), and thus activates the synthesis of SAM (Palmer and Marinus, 1994). […]

[3] = test system: lon host Δlon-510; test: Plasmid yield after overnight growth with glycerol as carbon source; format: cell-based, E. coli; settings: homocysteine and ferrous sulfate supplements
Description: (§1) Glycerol, when used as a carbon source, avoids catabolite repression. The plasmid was prepared from the following hosts grown overnight with the supplements homocysteine and ferrous sulfate, using glycerol as a carbon source: C600 containing the non-imprinted plasmid, the lon host Δlon-510 (containing the imprinted scL plasmid), and C600 containing the imprinted scL plasmid. […] One interpretation of the difference seen between lanes 3-4 and 5-6 is that when Lon is present (C600) and there is no catabolite repression, the post-replicative steps occur at a sufficient rate to adjust for the recovery of the final product, scH plasmid. When Lon is absent, stimulation of steps occurring after normal Lon-processing are ineffective because the substrate for these steps is insufficient.

[4] = test system: C600; test: as above; format: cell-based, E. coli; settings: homocysteine and ferrous sulfate supplements
Description: as §1

[5] = test system: C600 hosts; settings: additives: cysteine, cystine, or glutathione
Description: Single colonies that were normal in appearance, selected after transformation of C600 hosts in the presence of cysteine (Table 1, row 1) were resuspended in liquid medium. Aliquots were streaked onto spectinomycin-containing plates and spectinomycin plates with the following additives: cysteine, cystine, or glutathione.
Single colonies selected after transformation of C600 hosts in the presence of cysteine (Table 1, row 1) were initially difficult to grow.

## CC(=O)NC(CS)C(=O)O (racemic) [-acetyl-D,L-cysteine, N-acetyl-D,L-cysteine]
[1]
  effective as substitute for the L-cysteine effect in RepFIC transformations: None of these was effective

## N[C@@H](CCS)C(=O)O [Homocysteine, homocysteine]
[2]
  recovery of transformants with highly purified (salt-stripped) transforming DNA: rescued the transforming ability

## N[C@@H](CS(=O)(=O)O)C(=O)O [L0cysteic acid, L-cysteic acid]
[1]
  effective as substitute for the L-cysteine effect in RepFIC transformations: None of these was effective

## N=C(N)NCCC[C@H](N)C(=O)O [L-arginine]
[1]
  effective as substitute for the L-cysteine effect in RepFIC transformations: None of these was effective

## N[C@@H](CS)C(=O)O [L-cysteine]
[1]; selective medium, RepFIC transformation
  optimal concentration of cysteine: 400 micrograms per ml
[1]; RepFIC
  increase in the number of transformants: ~10^3 fold
[2]
  recovery of transformants with highly purified (salt-stripped) transforming DNA: no longer helped in the recovery of transformants

## N[C@@H](CSSC[C@H](N)C(=O)O)C(=O)O [L-cystine]
[1]
  effective as substitute for the L-cysteine effect in RepFIC transformations: None of these was effective

## CSCC[C@H](N)C(=O)O [L-methionine]
[1]
  effective as substitute for the L-cysteine effect in RepFIC transformations: None of these was effective

## O=S(=O)([O-])[O-].[Mg+2] [Magnesium sulfate, magnesium sulfate]
[1]; supplement added after electroporation, RepFIC
  increase in the transformation efficiency: no effect
[1]; RepFIC
  increase in the number of transformants: no effect

## OCC(O)CO [glycerol]
[3]
  increase in yield of plasmid: 5 to 10 fold
[4]
  increase in yield of plasmid: 5 to 10 fold

## glutamyl-cysteinylglycine [glutathione]
[1]; glutathione 300 micrograms per ml compared to 400 micrograms cysteine per ml
  number of colonies obtained: the same as with cysteine
[1]
  effective as substitute for the L-cysteine effect in RepFIC transformations: effective
[5]
  growth of cysteine-selected transformants on spectinomycin plates with additive: only grew on the glutathione-supplemented plates
